In patent US20240116985A1, “STAPLED PEPTIDES AND METHODS THEREOF” (priority 2020, published 2024):
Like-named read-outs stand apart in the source and are kept apart here.

Tests used:
[1] = target: T1, full-length beta-Catenin (Uniprot ID P35222) (Homo sapiens, UniProt P35222); experiment: Fluorescence polarization IC50 (beta-catenin / 5FAM-TCF4 10-53 competition); type: binding
T1 construct: 10 nM full-length beta-Catenin (Uniprot ID P35222)
T1 sequence (P35222 1-781): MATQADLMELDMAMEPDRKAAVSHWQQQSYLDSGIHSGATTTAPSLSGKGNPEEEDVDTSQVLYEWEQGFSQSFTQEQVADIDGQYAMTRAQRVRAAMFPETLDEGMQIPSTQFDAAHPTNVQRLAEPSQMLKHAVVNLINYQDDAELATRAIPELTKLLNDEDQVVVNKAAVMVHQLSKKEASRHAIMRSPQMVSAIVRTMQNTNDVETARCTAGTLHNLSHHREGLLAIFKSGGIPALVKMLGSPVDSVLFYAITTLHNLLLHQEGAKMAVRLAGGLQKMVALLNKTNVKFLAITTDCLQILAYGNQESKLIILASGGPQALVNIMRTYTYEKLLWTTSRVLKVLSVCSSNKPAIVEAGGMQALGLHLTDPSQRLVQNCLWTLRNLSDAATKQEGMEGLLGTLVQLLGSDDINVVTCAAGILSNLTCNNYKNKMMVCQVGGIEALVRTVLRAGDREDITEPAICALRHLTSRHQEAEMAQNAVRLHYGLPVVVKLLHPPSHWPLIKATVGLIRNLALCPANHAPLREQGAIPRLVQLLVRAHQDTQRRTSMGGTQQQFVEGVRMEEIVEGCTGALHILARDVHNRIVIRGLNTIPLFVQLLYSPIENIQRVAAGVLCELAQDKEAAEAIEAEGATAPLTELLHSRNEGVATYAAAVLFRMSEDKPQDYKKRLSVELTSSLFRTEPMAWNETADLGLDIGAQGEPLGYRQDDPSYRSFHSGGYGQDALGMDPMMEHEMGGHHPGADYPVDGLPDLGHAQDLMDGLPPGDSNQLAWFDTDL

[2] = target: T2, beta-catenin/TCF4 engagement (Homo sapiens, UniProt P35222); experiment: Nano-BRET target engagement assay (B-cat-Halo & TCF4-Luc in HEK293 cells); type: cell-based; settings: read-out: NanoBRET Abs IC50
T2 construct: expressed in transfected cells; host or cells: HEK293
T2 sequence (P35222 1-781): T1 sequence (P35222 1-781)

[3] = fluorescence polarization; read-out: beta-Catenin FP IC50

Row | IC50 [1, 3] [µM] | IC50 [2] [µM] | IC50 ([2]; absolute IC50) [µM] | SMILES | IC50 ([1]; read-out: beta-Catenin FP IC50; fluorescence polarization) [µM]
1 | 0.079 | > 20 | – | CC(=O)N1CCC[C@]12CC=CCCCC1(CCCC=CCCCOC(=O)N3CC[C@@](C(=O)N[C@@H](Cc4ccsc4)C(=O)N[C@@H](Cc4csc5ccccc45)C(=O)N[C@@H](C)C(N)=O)(C3)NC(=O)[C@H](CC(C)C)NC(=O)[C@H](Cc3ccccc3)NC(=O)[C@@H](C)NC(=O)[C@H](C)NC(=O)[C@H](Cc3cccc(C(=O)O)c3)NC(=O)[C@H](CC(=O)O)NC1=O)NC(=O)[C@H](CC(C)(C)C)NC(=O)[C@H](CC(=O)O)NC2=O (stereo partly drawn) [I-2096, Ac-PL3-Asp-Npg-B5-Asp-3COOHF-Ala-dAla-Phe-Leu-PyrS2-3Thi-BztA-Ala-NH2] | –
2 | 0.013 | 10.5 | – | CC(=O)N1CCC[C@]12CC=CCCCC1(CCCC=CCCCOC(=O)N3CC[C@@](C(=O)N[C@@H](Cc4ccsc4)C(=O)N[C@@H](Cc4csc5ccccc45)C(=O)N[C@H](C(N)=O)C(C)C)(C3)NC(=O)[C@H](CC(C)C)NC(=O)[C@H](Cc3ccccc3)NC(=O)[C@H](C)NC(=O)[C@H](CCC(N)=O)NC(=O)[C@H](Cc3cccc(C(=O)O)c3)NC(=O)[C@H](CC(=O)O)NC1=O)NC(=O)[C@H](CC(C)(C)C)NC(=O)[C@H](CC(=O)O)NC2=O (stereo partly drawn) [I-2055, Ac-PL3-Asp-Npg-B5-Asp-3COOHF-Gln-Ala-Phe-Leu-PyrS2-3Thi-BztA-Val-NH2] | –
3 | 0.027 | – | 12.9 | CC(=O)N1CCC[C@]12CC=CCCCC1(CCCC=CCCCOC(=O)N3CC[C@@](C(=O)N[C@@H](Cc4ccsc4)C(=O)N[C@@H](Cc4csc5ccccc45)C(=O)N[C@@H](CCC(N)=O)C(N)=O)(C3)NC(=O)[C@H](CC(C)C)NC(=O)[C@H](Cc3ccccc3)NC(=O)[C@H](C)NC(=O)[C@H](C)NC(=O)[C@H](CCN(CC(=O)O)C(=O)Cc3ccc(C(F)(F)F)cc3)NC(=O)[C@H](CC(=O)O)NC1=O)NC(=O)[C@H](CC(C)(C)C)NC(=O)[C@H](CC(=O)O)NC2=O (stereo partly drawn) [I-2246, Ac-PL3-Asp-Npg-B5-Asp-[4CF3PhAc]GAbu-Ala-Ala-Phe-Leu-PyrS2-3Thi-BztA-Gln-NH2] | –
4 | 0.011 | 37.2 | – | CC(=O)N1CCC[C@]12CC=CCCCC1(CCCC=CCCCOC(=O)N3CC[C@@](C(=O)N[C@@H](Cc4ccsc4)C(=O)N[C@@H](Cc4csc5ccccc45)C(=O)N[C@@H](CCC(N)=O)C(N)=O)(C3)NC(=O)[C@H](CCO)NC(=O)[C@H](Cc3cccc(C(=O)O)c3)NC(=O)[C@H](C)NC(=O)[C@H](C)NC(=O)[C@H](Cc3c[nH]cn3)NC(=O)[C@H](CC(=O)O)NC1=O)NC(=O)[C@H](CC(C)(C)C)NC(=O)[C@H](CC(=O)O)NC2=O (stereo partly drawn) [I-2120, Ac-PL3-Asp-Npg-B5-Asp-His-Ala-Ala-3COOHF-Hse-PyrS2-3Thi-BztA-Gln-NH2] | –
5 | 0.018 | 3.2 | – | CC(=O)N1CCC[C@]12CC=CCCCC1(CCCC=CCCCOC(=O)N3CC[C@@](C(=O)N[C@@H](Cc4ccccc4Cl)C(=O)N[C@@H](Cc4csc5ccccc45)C(=O)N[C@@H](CO)C(N)=O)(C3)NC(=O)[C@H](CC(C)C)NC(=O)[C@H](Cc3ccccc3)NC(=O)[C@H](C)NC(=O)[C@H](C)NC(=O)[C@H](Cc3ccc(F)c(C(=O)O)c3)NC(=O)[C@H](CC(=O)O)NC1=O)NC(=O)[C@H](CC(C)(C)C)NC(=O)[C@H](CC(=O)O)NC2=O (stereo partly drawn) [I-2205, Ac-PL3-Asp-Npg-B5-Asp-4F3COOHF-Ala-Ala-Phe-Leu-PyrS2-2C1F-BztA-Ser-NH2] | –

Row | SMILES | IC50 [1, 3] [µM] | IC50 [2] [µM] | IC50 ([2]; absolute IC50) [µM] | IC50 ([1]; read-out: beta-Catenin FP IC50; fluorescence polarization) [µM]
6 | CC(=O)N1CCC[C@]12CC=CCCCC1(CCCC=CCCCOC(=O)N3CC[C@@](C(=O)N[C@@H](Cc4ccsc4)C(=O)N[C@@H](Cc4csc5ccccc45)C(=O)N[C@@H](CCC(N)=O)C(N)=O)(C3)NC(=O)[C@H](CC(C)C)NC(=O)[C@H](Cc3ccccc3)NC(=O)[C@H](C)NC(=O)[C@H](C)NC(=O)[C@H](CCC(=O)OCCSSc3ccccc3)NC(=O)[C@H](CC(=O)O)NC1=O)NC(=O)[C@H](CC(C)(C)C)NC(=O)[C@H](CC(=O)O)NC2=O (stereo partly drawn) [I-1958, Ac-PL3-Asp-Npg-B5-Asp-[EtSSPh]GluE-Ala-Ala-Phe-Leu-PyrS2-3Thi-BztA-Gln-NH2] | – | > 20 | – | 1.54
